Read-outs that look alike come from different tables or passages of the source.
Legend:
[1] = Concentration in plasma, bile and organs after s.c. administration in rats; type: in vivo; conditions: rat; for concentration at 24 h: female, Wistar, sc
Experimental: (§1) Female wistar rats, 240-300 g body weight (Charles River-Wiga, Sulzfeld), were treated with the active ingredient WX-UK1 in the form of an aqueous solution or with the liposomal formulations 1-4 described in Example 1. The animals each received 1 dose/day over a period of 10 days. The administrations took place in the region of the flank (between shoulder and rear limbs) so that the animals were unable to reach the injection site with their paws. The injection sites were approx. 1 cm apart, no site being injected more than once. The first five injections took place on the left side, and the second five injections on the right side. The dose was usually 3 mg of active ingredient/kg of body weight, i.e. 0.9 mg of active ingredient was administered for an average body weight of 300 g. Radiolabeled active ingredient (3H-WX-UK1) was administered in some cases.
(§2) 24 h after the last injection, the animals were anaesthetized (ethylurethane, 1.4 g/kg i.p.), and citrated blood was obtained from the retroorbital venous plexus; citrated plasma was obtained by centrifugation at 1200×g for 10 min. The bile duct was then dissected, and bile was obtained for 15 min. Subsequently, the areas of skin at the injection sites were examined and the growth findings on dissection were recorded.
The animals were then sacrificed, and various organs (heart, kidney, liver, spleen) were dissected. The active ingredient content in the plasma, bile and organs was determined by HPLC [standard method using Nucleosil 7 C18 columns (Macherey-Nagel, Düren), acetonitrile/water/perchloric acid 30/70/0.04, 1 ml/min] after prepurification using Chromabond C18 solid-phase extraction columns (Macherey-Nagel, Duren). When ^3H-WX-UK1 was used, the active ingredient concentration was determined immediately after lyophilization of the samples by measuring the radioactivity in a liquid scintillation counter.

[2] = Tolerability of s.c. administration in rats (behavior, palpation, dissection, histology scores); type: in vivo; set-up: key to Behavior of the animals (score): 0: normal; slight scratching in 1st hour; 2: scratching and signs of pain; 3: still marked impairment after 2 h; key to Palpation consecutive (score): 0: unremarkable; 1: slight, isolated thickenings/indurations; 2: persistent thickenings/indurations, coalescing; 3: additional lesions, inflammations; conditions: rat
Experimental: as §1
The animals were weighed before each injection and observed for 2 h after each injection, and before each further injection the previous injection sites were palpated. The behavior of the animals and the palpation findings were recorded.
The following score was used to evaluate the observed impairments:
Behavior of the animals after the injection (2 h)
Consecutive Palpation Findings
as §2
The following score was used to evaluate the growth changes observed:
Final Observations, Growth Findings during Dissection
Skin samples were dissected from the regions of the injections, fixed in formalin and examined histologically (hematoxylin/eosin stain). The following score was used to evaluate the histologically visible changes: […]

[3] = s.c. 3 mg/kg 1 dose/day 10 days, 24 h after last injection, single experiment, listed as Control, 3 mg/kg

## CCOC(=O)N1CCN(C(=O)[C@H](Cc2cccc(C(=N)N)c2)NS(=O)(=O)c2c(C(C)C)cc(C(C)C)cc2C(C)C)CC1 [WX-UK1, Nα-(2,4,6-triisopropylphenylsulfonyl)-3-amidino-(L)-phenylalanine 4-ethoxycarbonylpiperazide]
[1]; bile, 3 mg/kg, s.c. 3 mg/kg 1 dose/day 10 days, 24 h after last injection, single experiment, read-out: Concentration Bile
  concentration at 24 h: 3100 ng/mL
[1]; heart, 3 mg/kg, s.c. 3 mg/kg 1 dose/day 10 days, 24 h after last injection, single experiment, read-out: Organ content Heart
  concentration at 24 h: 840 ng/g
[1]; kidney, 3 mg/kg, s.c. 3 mg/kg 1 dose/day 10 days, 24 h after last injection, single experiment, read-out: Organ content Kidney
  concentration at 24 h: 2300 ng/g
[1]; liver, 3 mg/kg, s.c. 3 mg/kg 1 dose/day 10 days, 24 h after last injection, single experiment, read-out: Organ content Liver
  concentration at 24 h: 180 ng/g
[1]; plasma, 3 mg/kg, s.c. 3 mg/kg 1 dose/day 10 days, 24 h after last injection, single experiment, read-out: Concentration Plasma
  concentration at 24 h: < 50 ng/mL
[1]; spleen, 3 mg/kg, s.c. 3 mg/kg 1 dose/day 10 days, 24 h after last injection, single experiment, read-out: Organ content Spleen
  concentration at 24 h: 690 ng/g
[1]; [3]
  Organ content Heart: 1.0 µg/g
  Organ content Kidney: 2.5 µg/g
  Organ content Liver: 0.36 µg/g
  Organ content Spleen: 0.65 µg/g
[1]; s.c., determined only by using 3H-WX-UK1
  Concentration in the plasma: < 100 ng/mL
[2]; 2 h after s.c. injection
  Behavior of the animals (score): 1
[2]; 24 h after last injection
  Impression final (score, findings during dissection): 2.5
[2]; after s.c. administration
  Skin histology (FIG. 1, FIG. 3, magnification 25x): strong inflammatory reaction
[2]; previous s.c. injection sites
  Palpation consecutive (score): 1
[2]; s.c., mean of the two experiments
  Score (total impairment), Mean: Mean = 7.5
[2]; s.c., sum of the part scores
  Score (total impairment of the animals): 7.5

— patent US20050181034A1, “Formulation of liposomal derivatives of phenylalanine” (WILEX AG, priority 2002, published 2005)
